Reference: patent US8207167B2, “Aryl-phenyl-sulfonamide-phenylene compounds and their use” (PIMCO 2664 Limited, priority 2008, dated 2012)
Values after ≈ are worked out from the molar mass of the structure shown.

Assays:
[1] = test system: J774 macrophages; assay: Alamar Blue macrophage J774 viability assay; format: cell-based; conditions: 72 hours culture with compound, Alamar Blue read-out
Description: (§1) Initial screening of candidate compounds was performed using in vitro assays to determine potency, metabolic stability and solubility in biologically relevant fluids. Potency was assessed using a viability assay based on the survival of the J774 macrophage cell line. Macrophages are closely related to osteoclasts and have been used previously as a model system for osteoclast survival (see, e.g., Luckman et al., 1998). Like osteoclasts, J774 macrophages are dependent on continued NFκB activation for survival, thereby providing a valuable screen for compounds with anti-inflammatory activity. Metabolic stability was measured by determining the rate of disappearance of compound in the presence of human liver microsomal preparations, as quantified by LC-MS/MS. Solubility was measured by equilibration of the compound in fasted state simulated intestinal fluid (FaSSIF) and quantified by HPLC.
In vitro potency as anti-inflammatory agents was determined for a number of APSAP compounds by incubation with J774 macrophages and subsequent determination of cell viability.
J774 cells were plated at 10^4 cells per well in 100 μL αMEM (α Modified Eagle Medium) in 96-well plates and grown overnight. The next day, test compounds were added to the cultures, and cultures were continued for another 72 hours. At the end of the culture period, cell survival was determined using an Alamar Blue assay as previously described (see, e.g., Nociari et al., 1998).
Alamar Blue is an oxidation-reduction sensitive indicator. The dye itself is in the oxidised state, which is blue and non-fluorescent. The dye can accept electrons from reducing species, such as NADPH and FADH, to form a reduced dye species, which is red and fluorescent. Thus the transformation from oxidised form to reduced form can be measured by fluorimetric or colourimetric means. For fluorescence measurements, 530-560 nm excitation and 590 nm emission wavelengths are typically used. For colourimetric measurements, absorbance at 570 nm (reduced form) and 600 nm (oxidised form) is typically measured. A simple calculation is performed to determine the relative quantities of the two species.
A high ratio of the reducing species, NADPH and FADH, to the corresponding oxidised species, NADP and FAD, is an indicator that cells are proliferating and viable. A low ratio indicates cells that are quiescent or non-viable.
Briefly, Alamar Blue (Biosource International) was added undiluted to each well (1:10 v/v, 10 μL). The plate was incubated at 37° C. for 3-4 hours and the fluorescence was measured at 590 nm, with a 25 nm bandwidth. A high reading indicated cells with normal viability, and a low reading indicated cells that have been damaged and are no longer proliferating normally. The controls gave a high fluorescence reading, indicating a high number of live, healthy cells. A potent test compound gave a low fluorescence reading.
The average results for each test compound (n=5) were expressed as a percent (%) of the average control value.
Addition of Compounds. All of the compounds studied were made up as 100 mM solutions in DMSO. These stock solutions were then diluted 1000-10000× in culture medium (αMEM). From these 100 μM or 10 μM solutions, convenient quantities (3-33 μL) were added directly to the wells so as to give the desired final compound concentration.

[2] = Thermodynamic aqueous solubility in fasted state simulated intestinal fluid (FaSSIF); format: physicochemical; conditions: 25° C., 24 hours equilibration, HPLC; for solubility at 24 h: pH 6.5, thermodynamic from solid
Description: as §1
Thermodynamic aqueous solubility was measured by equilibration of a number of APSAP compounds, in the solid state, with fasted state simulated intestinal fluid (FaSSIF) and quantified by HPLC. Measurement of solubility in FaSSIF provides a valuable model for the prediction of drug dissolution following oral administration.
Preparation of blank FaSSIF: NaOH pellets (174 mg), NaH2PO4.2H2O (2.235 g), and NaCl (3.093 g) were dissolved in 500 mL of water. The pH was adjusted to 6.5 using 1 M NaOH solution.
Preparation of FaSSIF: Sodium taurocholate (165 mg) was dissolved in 25 mL blank FaSSIF. 0.6 mL of a solution containing 100 mg/mL lecithin in methylene chloride was added. The methylene chloride was eliminated under vacuum at about 40° C. The vacuum was drawn for 15 minutes at 250 mbar, followed by 15 minutes at 100 mbar. […] After cooling to room temperature, the solution was then adjusted to 100 mL with blank FaSSIF.
The suspension was equilibrated at 25° C. for 24 hours, and then the pH was measured. The suspension was then filtered through a glass fibre C filter into a 96-well plate. The filtrate was then diluted by a factor of 100. Quantification was made by HPLC with reference to a standard solution of compound at approximately 0.1 mg/mL in DMSO. Different volumes of the standard, diluted and undiluted sample solutions were injected. The solubility was calculated using the peak areas determined by integration of the peak found at the same retention time as the principal peak in the standard injection. Analysis was performed on an Agilent HP1100 series system equipped with a diode array detector and using ChemStation software vB.02.01-SR1.

[3] = Human liver microsomal stability assay; format: in vitro ADME; conditions: pooled human liver microsomes 0.5 mg/mL, test compound 3 μM, 45 minute incubation, NADPH; for half-life at 3 μM: both sexes, pH 7.4
Description: as §1
Metabolic stability of APSAP derivatives was measured by determination of the rate of compound disappearance when incubated in the presence of human liver microsomes. Liver microsomes are prepared from the endoplasmic reticulum of hepatocytes and are the primary source of the most important enzymes (cytochrome P450) involved in drug metabolism. Study of drug stability in the presence of liver microsomes is accepted as a valuable model permitting rapid prediction of in vivo drug stability.
Human liver microsomes were obtained from a commercial source. Test compounds (3 μM) were incubated with pooled liver microsomes (male and female). Samples were incubated for a 45 minute period and removed at 5 time points and test compounds were analysed by LC-MS/MS.
The final incubation volume was 25 μL. A control incubation was included for each compound tested, where 0.1 M phosphate buffer pH 7.4 was added instead of NADPH. The control compounds testosterone and 7-hydroxycoumarin were included in each experiment and all incubations were performed singularly for each compound.
Each compound was incubated for 0, 5, 15, 30, and 45 minutes. The control (minus NADPH) was incubated for 45 minutes only. The reactions were stopped by the addition of 50 μL methanol containing internal standard at the appropriate time points. The incubation plates were centrifuged at 2500 rpm for 20 minutes at 4° C. to precipitate the protein.
Following protein precipitation, the sample supernatants were combined in cassettes of up to 4 compounds and analysed using standard LC-MS/MS conditions.
From a plot of the natural logarithm of the peak area ratio (i.e., the ratio of compound peak area:internal standard peak area) against time, the gradient of the line was determined. Subsequently, half-life and intrinsic clearance were calculated using the equations below: Eliminated rate constant(k)=(−gradient). […] Intrinsic Clearance(CLint)([…])=(V×0.693)/t1/2. wherein V=Incubation volume(μL/mg microsomal protein). Pharmacokinetics Studies

[4] = fasted state simulated intestinal fluid (FaSSIF)

| half-life at 3 μM [3] [min] | solubility at 24 h [2, 4] [µg/mL] | SMILES | IC50 ([1]; Mus musculus) [nM] | further results |
| --- | --- | --- | --- | --- |
| 18 |  | O=S(=O)(Nc1cccc(CCO)c1)c1ccc(-c2ccc(F)cc2F)cc1 [ABD628, 2′,4′-difluoro-biphenyl-4-sulfonic acid [3-(2-hydroxy-ethyl)-phenyl]-amide, reference compound] |  |  |
| 12 | 140 (≈ 321 µM) | CC(C)(O)c1cccc(NS(=O)(=O)c2ccc(-c3ccc(Cl)cc3Cl)cc2)c1 [ABD707, 2′,4′-Dichloro-N-(3-(2-hydroxypropan-2-yl)phenyl)biphenyl-4-sulfonamide] | 90 |  |
| 6 | 100 (≈ 237 µM) | CC(O)c1cccc(NS(=O)(=O)c2ccc(-c3ccc(Cl)cc3Cl)cc2)c1 (stereo not shown) [ABD708, 2′,4′-Dichloro-N-(3-(1-hydroxyethyl)phenyl)biphenyl-4-sulfonamide] | 180 |  |
| 18 | 70 (≈ 161 µM) | O=S(=O)(Nc1cccc(C2(O)CC2)c1)c1ccc(-c2ccc(Cl)cc2Cl)cc1 [ABD709, 2′,4′-Dichloro-N-(3-(1-hydroxycyclopropyl)phenyl)biphenyl-4-sulfonamide] | 380 |  |
| 21 | 90 (≈ 207 µM) | CN(C)Cc1cccc(NS(=O)(=O)c2ccc(-c3ccc(Cl)cc3Cl)cc2)c1 [ABD724, 2′,4′-Dichloro-N-(3-((dimethylamino)methyl)phenyl)biphenyl-4-sulfonamide] | 300 |  |
| 15 | 20 (≈ 44.5 µM) | CN(C)C(=O)c1cccc(NS(=O)(=O)c2ccc(-c3ccc(Cl)cc3Cl)cc2)c1 [ABD730, 3-(2′,4′-Dichlorobiphenyl-4-ylsulfonamido)-N,N-dimethylbenzamide] |  |  |
| 11 | 8 (≈ 19 µM) | CC(=O)c1cccc(NS(=O)(=O)c2ccc(-c3ccc(Cl)cc3Cl)cc2)c1 [ABD746, N-(3-Acetylphenyl)-2′,4′-dichlorobiphenyl-4-sulfonamide, reference compound] |  |  |
| 46 | 40 (≈ 87.5 µM) | NS(=O)(=O)c1cccc(NS(=O)(=O)c2ccc(-c3ccc(Cl)cc3Cl)cc2)c1 [ABD751, 2′,4′-Dichloro-N-(3-sulfamoylphenyl)biphenyl-4-sulfonamide] | 870 |  |
| 16 | 20 (≈ 42 µM) | O=S(=O)(Nc1cccc(C(O)C(F)(F)F)c1)c1ccc(-c2ccc(Cl)cc2Cl)cc1 (stereo not shown) [ABD766, 2′,4′-Dichloro-N-(3-(2,2,2-trifluoro-1-hydroxyethyl)phenyl)biphenyl-4-sulfonamide] | 710 |  |

More lines, now with the values behind:

| SMILES | half-life at 3 μM [3] [min] | solubility at 24 h [2, 4] [µg/mL] | IC50 ([1]; Mus musculus) [nM] | further results |
| --- | --- | --- | --- | --- |
| O=S(=O)(Nc1cccc(CO)c1)c1ccc(-c2ccc(F)cc2F)cc1 [ABD456, 2′,4′-difluoro-biphenyl-4-sulfonic acid (3-hydroxymethyl-phenyl)-amide, reference compound] |  |  | 250 | solubility at 24 h [2]: 50 µg/mL (≈ 133 µM) |
| O=S(=O)(Nc1ccc(CO)cc1)c1ccc(-c2ccc(F)cc2F)cc1 [ABD466, 2′,4′-difluoro-biphenyl-4-sulfonic acid (4-hydroxymethyl-phenyl)-amide, reference compound] | 2 |  | 3000 | solubility at 24 h [2]: 40 µg/mL (≈ 107 µM) |
| Cc1c(CO)cccc1NS(=O)(=O)c1ccc(-c2ccc(F)cc2F)cc1 [ABD527, reference compound] |  |  |  | Solubility [2]: 40 µg/mL (≈ 103 µM) |
| O=S(=O)(Nc1ccc(CO)c(CO)c1)c1ccc(-c2ccc(F)cc2F)cc1 [ABD565, reference compound] |  |  |  | Solubility [2]: 30 µg/mL (≈ 74 µM) |
| O=S(=O)(Nc1cccc(CO)c1)c1ccc(-c2ccc(Cl)cc2F)cc1 [ABD575, reference compound] |  |  |  | IC50 [1]: 400 nM; Solubility [2]: 70 µg/mL (≈ 179 µM) |
| O=S(=O)(Nc1cc(CO)ccc1O)c1ccc(-c2ccc(F)cc2F)cc1 [ABD585, reference compound] |  |  |  | Solubility [2]: 70 µg/mL (≈ 179 µM) |
| O=C(O)c1cccc(NS(=O)(=O)c2ccc(-c3ccc(Cl)cc3Cl)cc2)c1 [ABD612, 3-(2′,4′-Dichlorobiphenyl-4-ylsulfonamido)benzoic acid, reference compound] |  | 130 (≈ 308 µM) |  | T1/2 [3]: Stable |
| O=S(=O)(Nc1cccc(CCO)c1)c1ccc(-c2ccc(Cl)cc2Cl)cc1 [ABD625, reference compound] |  |  |  | T1/2 [3]: 13 min |
| O=S(=O)(Nc1cccc(CCO)c1)c1ccc(-c2ccc(Br)cc2)cc1 [ABD630, reference compound] |  |  |  | T1/2 [3]: 43 min; Solubility [2]: 60 µg/mL (≈ 139 µM) |
| CN(C)CC(O)c1cccc(NS(=O)(=O)c2ccc(-c3ccc(F)cc3F)cc2)c1 (stereo not shown) [ABD784, N-(3-(2-(Dimethylamino)-1-hydroxyethyl)phenyl)-2′,4′-difluorobiphenyl-4-sulfonamide] |  |  | 1430 |  |
| CN[C@@H](CO)c1cccc(NS(=O)(=O)c2ccc(-c3ccc(F)cc3F)cc2)c1 [ABD810, (R)-2′,4′-Difluoro-N-(3-(2-hydroxy-1-(methylamino)ethyl)phenyl)biphenyl-4-sulfonamide] |  |  | 1020 |  |
| CN[C@H](CO)c1cccc(NS(=O)(=O)c2ccc(-c3ccc(F)cc3F)cc2)c1 [ABD811, (S)-2′,4′-Difluoro-N-(3-(2-hydroxy-1-(methylamino)ethyl)phenyl)biphenyl-4-sulfonamide] |  |  | 350 |  |
| N[C@@H](CO)c1cccc(NS(=O)(=O)c2ccc(-c3ccc(F)cc3F)cc2)c1 [ABD854, (R)—N-(3-(1-Amino-2-hydroxyethyl)phenyl)-2′,4′-difluorobiphenyl-4-sulfonamide] |  |  | 1350 |  |
| CC(N)(CO)c1cccc(NS(=O)(=O)c2ccc(-c3ccc(F)cc3F)cc2)c1 (stereo not shown) [ABD862, N-(3-(2-Amino-1-hydroxypropan-2-yl)phenyl)-2′,4′-difluorobiphenyl-4-sulfonamide] |  |  | 2430 |  |
